In the supplement of paper PMC10307832:

Key:
Experiment in all cases: relative viability (nuclei count vs DMSO), 5 days (fraction); higher = more cells survive
[1] = compound: CC1=C(N=C(N=C1N)[C@H](CC(=O)N)NC[C@@H](C(=O)N)N)C(=O)N[C@@H]([C@H](C2=CN=CN2)OC3C(C(C(C(O3)CO)O)O)OC4C(C(C(C(O4)CO)O)OC(=O)N)O)C(=O)N[C@H](C)[C@H]([C@H](C)C(=O)N[C@@H]([C@@H](C)O)C(=O)NCCC5=NC(=CS5)C6=NC(=CS6)C(=O)NCCC[S+](C)C)O [Bleomycin] + Cc1nc(NC(=O)N2CCC[C@H]2C(N)=O)sc1-c1ccnc(C(C)(C)C(F)(F)F)c1 [Alpelisib] (partner 2 µM); details: main component drawn
How it was run: (§1)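 Lung cancer cell lines were pin-tool dosed in 1536-well plates on the day after seeding, with either a lone drug or a fixed anchor-drug dose plus five library-drug doses (not always all listed) in √10 steps. Nuclei were counted on 4× images after 5 days. Relative viability is the ratio of treated-well to vehicle-well nuclei counts, with each value a median of duplicate plates.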

[2] = compound: CC1=C(N=C(N=C1N)[C@H](CC(=O)N)NC[C@@H](C(=O)N)N)C(=O)N[C@@H]([C@H](C2=CN=CN2)OC3C(C(C(C(O3)CO)O)O)OC4C(C(C(C(O4)CO)O)OC(=O)N)O)C(=O)N[C@H](C)[C@H]([C@H](C)C(=O)N[C@@H]([C@@H](C)O)C(=O)NCCC5=NC(=CS5)C6=NC(=CS6)C(=O)NCCC[S+](C)C)O [Bleomycin] + Cc1nc(Nc2ncc(C(=O)Nc3c(C)cccc3Cl)s2)cc(N2CCN(CCO)CC2)n1 [Dasatinib] (partner 0.075 µM); details: main component drawn
How it was run: as §1

[3] = compound: COc1cc([C@@H]2c3cc4c(cc3[C@@H](O[C@@H]3O[C@@H]5CO[C@@H](C)O[C@H]5[C@H](O)[C@H]3O)[C@H]3COC(=O)[C@H]23)OCO4)cc(OC)c1O [Etoposide] + C[C@@H](Oc1cc(-c2cnn(C3CCNCC3)c2)cnc1N)c1c(Cl)ccc(F)c1Cl [Crizotinib] (partner 1 µM)
How it was run: as §1

[4] = compound: COc1cc([C@@H]2c3cc4c(cc3[C@@H](O[C@@H]3O[C@@H]5CO[C@@H](C)O[C@H]5[C@H](O)[C@H]3O)[C@H]3COC(=O)[C@H]23)OCO4)cc(OC)c1O [Etoposide] + COc1cc2c(Oc3ccc(NC(=O)C4(C(=O)Nc5ccc(F)cc5)CC4)cc3F)ccnc2cc1OCCCN1CCOCC1 [Foretinib] (partner 0.25 µM)
How it was run: as §1

Row | Cell Line | relative viability ([1]; first compound 0.01 µM) | relative viability ([1]; first compound 0.03162 µM) | relative viability ([1]; first compound 0.1 µM) | relative viability ([1]; first compound 0.3162 µM) | relative viability ([1]; first compound 1 µM) | relative viability ([2]; first compound 0.01 µM) | relative viability ([2]; first compound 0.03162 µM) | relative viability ([2]; first compound 0.1 µM) | relative viability ([2]; first compound 0.3162 µM) | relative viability ([2]; first compound 1 µM) | relative viability ([3]; first compound 0.01 µM) | relative viability ([3]; first compound 0.03162 µM) | relative viability ([3]; first compound 0.1 µM) | relative viability ([3]; first compound 0.3162 µM) | relative viability ([3]; first compound 1 µM) | relative viability ([4]; first compound 0.01 µM) | relative viability ([4]; first compound 0.03162 µM) | relative viability ([4]; first compound 0.1 µM) | relative viability ([4]; first compound 0.3162 µM) | relative viability ([4]; first compound 1 µM)
1 | HCC-15 | 0.79 | 0.852 | 0.751 | 0.35 | 0.236 | 0.613 | 0.559 | 0.515 | 0.0886 | 0.177 | 0.799 | 0.821 | 0.856 | 0.342 | 0.125 | 1.07 | 1.02 | 1.02 | 0.314 | 0.157
2 | HCC-44 | 0.45 | 0.27 | 0.224 | 0.212 | 0.162 |  |  |  |  |  | 0.82 | 0.807 | 0.812 | 0.696 | 0.351 |  |  |  |  | 
3 | HCC-78 | 0.287 | 0.266 | 0.285 | 0.222 | 0.174 | 0.326 | 0.548 | 0.366 | 0.287 | 0.285 | 0.31 | 0.334 | 0.241 | 0.227 | 0.181 | 0.476 | 0.532 | 0.438 | 0.404 | 0.252
4 | HCC-366 | 0.345 | 0.253 | 0.212 | 0.042 | 0.035 | 0.504 | 0.412 | 0.444 | 0.0996 | 0.0443 | 0.43 | 0.434 | 0.217 | 0.0627 | 0.0226 | 0.961 | 0.848 | 0.442 | 0.12 | 0.0524
5 | HCC-827 | 0.925 | 1 | 0.852 | 0.599 | 0.233 | 0.228 | 0.24 | 0.338 | 0.245 | 0.225 | 0.879 | 0.941 | 0.662 | 0.394 | 0.228 | 0.996 | 1.01 | 0.915 | 0.284 | 0.177
6 | HOP-62 | 0.412 | 0.458 | 0.185 | 0.116 | 0.13 | 0.49 | 0.479 | 0.377 | 0.165 | 0.106 | 0.96 | 0.998 | 0.799 | 0.681 | 0.157 | 1.06 | 1.05 | 0.967 | 0.628 | 0.418
7 | IA-LM | 0.514 | 0.614 | 0.565 | 0.372 | 0.246 |  |  |  |  |  | 0.749 | 1.15 | 0.475 | 0.73 | 0.698 | 1.06 | 1.09 | 0.865 | 0.975 | 0.494
8 | LC-2-ad | 0.699 | 0.66 | 0.307 | 0.126 | 0.106 | 0.312 | 0.373 | 0.318 | 0.183 | 0.145 | 0.568 | 0.45 | 0.434 | 0.332 | 0.203 | 0.898 | 0.896 | 0.696 | 0.424 | 0.308
9 | LCLC-97TM1 | 0.162 | 0.186 | 0.134 | 0.127 | 0.101 | 0.553 | 0.576 | 0.619 | 0.208 | 0.123 |  | 0.382 | 0.241 | 0.155 | 0.111 | 0.87 | 0.988 | 0.732 | 0.341 | 0.173
10 | NCI-H522 |  |  |  |  |  | 0.791 | 0.716 | 0.518 | 0.43 | 0.328 |  |  |  |  |  |  |  |  |  | 
11 | NCI-H1299 | 0.978 | 1.03 | 0.923 | 0.529 | 0.416 |  |  |  |  |  | 0.965 | 1 | 1.04 | 0.948 | 0.757 | 1.07 | 1.11 | 1.11 | 0.997 | 0.811
12 | NCI-H1395 | 0.817 | 0.812 | 0.669 | 0.9 | 0.382 | 0.377 | 0.413 | 0.379 | 0.412 | 0.381 |  |  |  |  |  | 1 | 0.978 | 0.868 | 0.885 | 0.606
13 | NCI-H1623 |  |  |  |  |  | 0.561 | 0.557 | 0.521 | 0.347 | 0.273 |  |  |  |  |  | 0.984 | 0.937 | 0.628 | 0.658 | 0.298
14 | NCI-H1650 |  |  |  |  |  | 0.263 | 0.281 | 0.145 | 0.124 | 0.128 | 0.874 | 0.776 | 0.634 | 0.253 | 0.16 | 0.981 | 1.09 | 0.9 | 0.431 | 0.281
15 | NCI-H1703 | 0.32 | 0.295 | 0.278 | 0.173 | 0.196 |  |  |  |  |  |  | 0.521 | 0.584 | 0.501 | 0.162 | 0.39 | 0.34 | 0.349 | 0.268 | 0.343
16 | NCI-H1792 | 0.631 | 0.61 | 0.623 | 0.228 | 0.221 | 0.698 | 0.805 | 1.01 | 0.439 | 0.283 | 1.02 | 0.913 | 0.825 | 0.831 | 0.623 |  |  |  |  | 
17 | NCI-H1793 | 0.695 | 0.783 | 0.612 | 0.171 | 0.176 | 0.382 | 0.427 | 0.329 | 0.17 | 0.115 |  |  |  |  |  | 0.491 | 0.644 |  | 0.503 | 0.248
18 | NCI-H2342 |  |  |  |  |  | 0.311 | 0.335 | 0.339 | 0.274 | 0.277 |  |  |  |  |  | 0.878 | 1.02 | 0.493 | 0.359 | 0.298
19 | SW 900 |  |  |  |  |  | 0.48 | 0.418 | 0.241 | 0.147 | 0.134 |  |  |  |  |  | 0.806 | 0.87 | 0.725 | 0.596 | 0.278
